Experimental data from PubChem BioAssay AID328 (DTP/NCI, 2004).
Where “and” joins values, the source holds several entries; their conditions need not be identical. Equal entries are not always repeated. Inconclusive results and toxic doses are left out. Rule for the calls: active = survival T/C of 150% or more; inactive = T/C below 125% in these data.

Tested on: BDF1 mice, P388 leukemia ip, median survival T/C
Experiment: NCI In Vivo Anticancer Drug Screen. Data for tumor model P388 Leukemia (intraperitoneal) in B6D2F1 (BDF1) mice
Settings: endpoint: median survival time, higher = longer survival
Method in brief: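 Survival ratio, drug arm over vehicle arm, in mice with a transplanted tumour.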

[1] = dose: 50.0 mg/kg/injection, schedule: Q01DX009 (ip), vehicle: saline with Tween-80
[2] = dose: 100.0 mg/kg/injection, schedule: Q01DX009 (ip), vehicle: saline with Tween-80
[3] = dose: 200.0 mg/kg/injection, schedule: Q01DX009 (ip), vehicle: saline with Tween-80
[4] = dose: 12.5 mg/kg/injection, schedule: Q01DX009 (ip), vehicle: saline with Tween-80
[5] = dose: 25.0 mg/kg/injection, schedule: Q01DX009 (ip), vehicle: saline with Tween-80
[6] = dose: 25.0 mg/kg/injection, schedule: Q04DX003 (ip), vehicle: saline
[7] = dose: 50.0 mg/kg/injection, schedule: Q01DX009 (ip), vehicle: saline
[8] = dose: 100.0 mg/kg/injection, schedule: Q01DX009 (ip), vehicle: saline
[9] = dose: 100.0 mg/kg/injection, schedule: Q04DX003 (ip), vehicle: other
[10] = dose: 100.0 mg/kg/injection, schedule: Q04DX003 (ip), vehicle: saline with Tween-80
[11] = dose: 200.0 mg/kg/injection, schedule: Q04DX003 (ip), vehicle: saline with Tween-80
[12] = dose: 400.0 mg/kg/injection, schedule: Q04DX003 (ip), vehicle: saline with Tween-80
[13] = dose: 100.0 mg/kg/injection, schedule: Q01DX001 (ip), vehicle: saline with Tween-80
[14] = dose: 200.0 mg/kg/injection, schedule: Q01DX001 (ip), vehicle: saline with Tween-80
[15] = dose: 50.0 mg/kg/injection, schedule: Q04DX003 (ip), vehicle: saline

Measured: T/C

COc1cc([N+](=O)[O-])cc(OC)c1OC
inactive: [1] 100 % of control | [2] 94 % of control | [3] 102 % of control | dose: 400.0 mg/kg/injection, schedule: Q01DX009 (ip), vehicle: saline with Tween-80 91 % of control

Cc1ccc(N2CCN(CCCN3CCN(c4ccccc4Cl)CC3)CC2)cc1
inactive: dose: 6.25 mg/kg/injection, schedule: Q01DX009 (ip), vehicle: saline with Tween-80 86 % of control | dose: 6.25 mg/kg/injection, schedule: Q04DX003 (ip), vehicle: saline 104 % of control | [4] 95 % of control | dose: 12.5 mg/kg/injection, schedule: Q04DX003 (ip), vehicle: saline 100 % of control | [5] 100 % of control | [6] 104 % of control

CC1=CP(=O)(O)CC1
inactive: [7] 95 % of control | [8] 95 % of control

N#CC1c2ccccc2C=NN1C(=O)N(c1ccccc1)c1ccccc1 (centres undefined)
inactive: [9] 90 % of control | dose: 200.0 mg/kg/injection, schedule: Q04DX003 (ip), vehicle: other 100 % of control | dose: 400.0 mg/kg/injection, schedule: Q04DX003 (ip), vehicle: other 100 % of control

CC(=O)c1ccccc1[N+](=O)[O-]
inactive: [1] 95 % of control | [2] 100 % of control | [10] 95 % of control | [3] 86 % of control | [11] 90 % of control | [12] 100 % of control

Cc1cc(Nc2cccc(Cl)c2)cc(=O)[nH]1
inactive: dose: 50.0 mg/kg/injection, schedule: Q01DX001 (ip), vehicle: saline with Tween-80 113 % of control | [13] 100 % of control | [14] 98 % of control

O=Nc1ccc2ccccc2c1O
inactive: dose: 50.0 mg/kg/injection, schedule: Q01DX001 (ip), vehicle: Klucel (hydroxypropylcellulose) (HPC) 107 % of control | dose: 100.0 mg/kg/injection, schedule: Q01DX001 (ip), vehicle: Klucel (hydroxypropylcellulose) (HPC) 104 % of control

COC(=O)C(Cc1ccc(N(CCCl)CCCl)cc1)N=NNc1nc[nH]c1C(N)=O (centres undefined)
active: dose: 14.0 mg/kg/injection, schedule: Q04DX003 (ip), vehicle: saline 154 % of control | dose: 33.0 mg/kg/injection, schedule: Q04DX003 (ip), vehicle: saline 195 % of control | [15] 213 % of control

CCO/C=C1\SC(=S)N(c2ccco2)C1=O
inactive: dose: 5.56 mg/kg/injection, schedule: Q01DX009 (ip), vehicle: saline with Tween-80 104 % of control | dose: 8.33 mg/kg/injection, schedule: Q01DX009 (ip), vehicle: saline with Tween-80 104 % of control | [4] 108 % of control | dose: 18.7 mg/kg/injection, schedule: Q01DX009 (ip), vehicle: saline with Tween-80 116 % of control | dose: 30.0 mg/kg/injection, schedule: Q01DX009 (ip), vehicle: saline 116 % of control | dose: 44.0 mg/kg/injection, schedule: Q01DX009 (ip), vehicle: saline 100 % of control | [1] 100 % of control | dose: 66.0 mg/kg/injection, schedule: Q01DX009 (ip), vehicle: saline 116 % of control | [8] 116 % of control
active: dose: 22.0 mg/kg/injection, schedule: Q01DX009 (ip), vehicle: saline with Tween-80 150 % of control

OC(CBr)c1ccc(Cl)cc1 (centres undefined)
inactive: [10] 100 % of control | [11] 95 % of control | [12] 95 % of control

Cc1[nH]ccc2c(C)c3nc4ccccc4c3cc12
active: dose: 0.9 mg/kg/injection, schedule: Q01DX009 (ip), vehicle: saline with Tween-80 150 % of control | dose: 1.35 mg/kg/injection, schedule: Q01DX009 (ip), vehicle: saline with Tween-80 160 % of control | dose: 4.12 mg/kg/injection, schedule: Q01DX009 (ip), vehicle: saline with Tween-80 168 % of control | dose: 8.25 mg/kg/injection, schedule: Q01DX009 (ip), vehicle: saline with Tween-80 177 % of control | dose: 16.5 mg/kg/injection, schedule: Q01DX009 (ip), vehicle: saline with Tween-80 163 % of control | [5] 165 % of control and 168 % of control | dose: 37.5 mg/kg/injection, schedule: Q01DX009 (ip), vehicle: saline with Tween-80 225 % of control and 154 % of control
inactive: dose: 0.39 mg/kg/injection, schedule: Q01DX009 (ip), vehicle: saline with Tween-80 116 % of control | dose: 0.59 mg/kg/injection, schedule: Q01DX009 (ip), vehicle: saline with Tween-80 100 % of control

Nc1nncs1
active: dose: 15.6 mg/kg/injection, schedule: Q01DX010 (ip), vehicle: saline 154 % of control | dose: 25.0 mg/kg/injection, schedule: Q01DX010 (ip), vehicle: saline 163 % of control | dose: 50.0 mg/kg/injection, schedule: Q01DX010 (ip), vehicle: saline 190 % of control | dose: 100.0 mg/kg/injection, schedule: Q04DX003 (ip), vehicle: saline 172 % of control | dose: 108.0 mg/kg/injection, schedule: Q04DX003 (ip), vehicle: saline 154 % of control | dose: 173.0 mg/kg/injection, schedule: Q04DX003 (ip), vehicle: other 179 % of control | dose: 180.0 mg/kg/injection, schedule: Q04DX003 (ip), vehicle: saline 208 % of control | dose: 200.0 mg/kg/injection, schedule: Q04DX003 (ip), vehicle: saline 181 % of control | dose: 288.0 mg/kg/injection, schedule: Q04DX003 (ip), vehicle: other 212 % of control
inactive: dose: 7.8 mg/kg/injection, schedule: Q01DX010 (ip), vehicle: saline 118 % of control | dose: 12.5 mg/kg/injection, schedule: Q01DX010 (ip), vehicle: saline 100 % of control | [6] 118 % of control | dose: 100.0 mg/kg/injection, schedule: Q01DX010 (ip), vehicle: saline 100 % of control

O=S1(=O)C=CCCC=C1
inactive: dose: 50.0 mg/kg/injection, schedule: Q01DX009 (ip), vehicle: Klucel (hydroxypropylcellulose) (HPC) 100 % of control | dose: 100.0 mg/kg/injection, schedule: Q01DX009 (ip), vehicle: Klucel (hydroxypropylcellulose) (HPC) 89 % of control

c1ccc2c(c1)-c1cccc3cccc-2c13
inactive: [1] 98 % of control | [2] 102 % of control | [3] 100 % of control

CO[C@H]1C[C@H](O[C@H]2CC[C@]3(C=O)[C@H]4CC[C@]5(C)[C@@H](C6=CC(=O)OC6)CC[C@]5(O)[C@@H]4CC[C@]3(O)C2)O[C@H](C)[C@H]1O[C@@H]1O[C@H](CO)[C@@H](O)[C@H](O)[C@H]1O
inactive: dose: 0.25 mg/kg/injection, schedule: Q01DX009 (ip), vehicle: saline 104 % of control | dose: 0.25 mg/kg/injection, schedule: Q04DX003 (ip), vehicle: saline 91 % of control | dose: 0.5 mg/kg/injection, schedule: Q01DX009 (ip), vehicle: saline 100 % of control | dose: 0.5 mg/kg/injection, schedule: Q04DX003 (ip), vehicle: saline 104 % of control | dose: 1.0 mg/kg/injection, schedule: Q01DX009 (ip), vehicle: saline 90 % of control | dose: 1.0 mg/kg/injection, schedule: Q01DX010 (ip), vehicle: saline 95 % of control | dose: 1.0 mg/kg/injection, schedule: Q04DX003 (ip), vehicle: saline 100 % of control | dose: 2.0 mg/kg/injection, schedule: Q04DX003 (ip), vehicle: saline 100 % of control

CN=C(c1ccccc1)C1(O)CC2CCC1C2 (centres undefined)
inactive: [13] 100 % of control | [14] 104 % of control | dose: 400.0 mg/kg/injection, schedule: Q01DX001 (ip), vehicle: saline with Tween-80 100 % of control

C1CCC2C(C1)NC1CCCCC12 (centres undefined)
inactive: dose: 12.0 mg/kg/injection, schedule: Q04DX003 (ip), vehicle: saline 109 % of control | dose: 12.5 mg/kg/injection, schedule: Q01DX001 (ip), vehicle: saline sonified 100 % of control | dose: 25.0 mg/kg/injection, schedule: Q01DX001 (ip), vehicle: saline sonified 90 % of control | dose: 25.0 mg/kg/injection, schedule: Q01DX009 (ip), vehicle: saline 112 % of control | [6] 95 % of control | dose: 50.0 mg/kg/injection, schedule: Q01DX001 (ip), vehicle: saline sonified 90 % of control | [7] 104 % of control | [15] 109 % of control

O=C(CC(O)(C(F)(F)F)C(F)(F)F)c1ccc(F)cc1
inactive: [9] 120 % of control
